Values of other authors as cited in US10494360B2, “Inhibitors of indoleamine 2,3-dioxygenase” (NETHERLANDS TRANSLATIONAL RESEARCH CENTER B.V., priority 2016, dated 2019).

What was measured:
lung carcinoma = settings: syngeneic mouse lung carcinoma model and transgenic mouse model; cited from earlier work
[1] = test system: IDO1 expressed in mouse tumor cells; settings: pre-immunized mice; Uyttenhove et al.; cited from earlier work
[2] = test system: melanoma and glioblastoma; settings: mouse tumor models for melanoma and glioblastoma; cited from earlier work
Leishmania major = Leishmania major infection; cited from earlier work
influenza virus = settings: influenza virus-infected mice; cited from earlier work
TDO = TDO (Homo sapiens, UniProt P48775); settings: read-out: KM,Trp of TDO for L-tryptophan; cited from earlier work
Chain of TDO (P48775 whole entry, species assumed): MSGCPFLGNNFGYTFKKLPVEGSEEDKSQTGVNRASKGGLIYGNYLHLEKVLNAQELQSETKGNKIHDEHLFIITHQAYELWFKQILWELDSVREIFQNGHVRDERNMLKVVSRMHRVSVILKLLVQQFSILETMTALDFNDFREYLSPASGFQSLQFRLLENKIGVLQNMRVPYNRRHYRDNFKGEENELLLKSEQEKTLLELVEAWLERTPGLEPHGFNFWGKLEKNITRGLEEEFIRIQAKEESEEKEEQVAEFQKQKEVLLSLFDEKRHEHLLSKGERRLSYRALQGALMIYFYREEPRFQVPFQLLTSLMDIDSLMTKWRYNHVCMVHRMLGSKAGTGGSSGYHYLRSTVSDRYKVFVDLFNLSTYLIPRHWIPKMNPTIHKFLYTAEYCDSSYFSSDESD

IDO1 = IDO1 (Homo sapiens, UniProt P14902); set-up: Recombinant full-length IDO1 (Seegers, N., et al.) and all other assay components were diluted in IDO1 reaction buffer; made in house; settings: read-out: KM,Trp of IDO1 for L-tryptophan; cited from earlier work
Chain of IDO1 (P14902 whole entry, species assumed): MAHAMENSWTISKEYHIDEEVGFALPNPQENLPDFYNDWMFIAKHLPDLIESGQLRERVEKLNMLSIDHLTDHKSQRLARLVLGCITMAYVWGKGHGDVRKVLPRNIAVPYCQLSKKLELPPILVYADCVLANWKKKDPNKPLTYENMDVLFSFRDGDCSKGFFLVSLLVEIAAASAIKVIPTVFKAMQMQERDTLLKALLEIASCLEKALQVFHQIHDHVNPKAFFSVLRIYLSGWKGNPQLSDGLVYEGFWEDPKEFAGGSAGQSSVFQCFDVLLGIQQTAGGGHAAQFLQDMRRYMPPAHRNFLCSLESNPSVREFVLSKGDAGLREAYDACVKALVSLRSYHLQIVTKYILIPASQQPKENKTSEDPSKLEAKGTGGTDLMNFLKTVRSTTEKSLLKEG

Compound | efficacy of a cancer vaccine in combination (lung carcinoma) | reversal of IDO1-mediated prevention of tumor cell rejection [1] | efficacy of PD-1 and CTLA4 antibodies in combination [2] | parasite burden (Leishmania major) | T cell response against influenza virus (influenza virus) | Km (TDO) [µM] | Km (IDO1) [µM]
Cn1cc(C[C@H](N)C(=O)O)c2ccccc21 [Example 1-MT, 1-methyl-L-tryptophan] | increased the efficacy of a cancer vaccine | this effect could be reverted | increased the efficacy of antibodies targeting the immune checkpoints PD-1 and CTLA4 | reduced the parasite burden | enhanced T cell response against the virus |  | 
N[C@@H](Cc1c[nH]c2ccccc12)C(=O)O [L-tryptophan] |  |  |  |  |  | 190 | 6
